According to patent publication US20150291598A1 (NOVARTIS AG, priority 2012, published 2015):
Like-named read-outs stand apart in the source and are kept apart here.

Tested on: P. falciparum (NF54 or 3D7 strain)
Assay: Assay for P. falciparum proliferation in infected human blood cells (SYBR Green)
Format: cell-based, Plasmodium falciparum
Settings: Plasmodium falciparum, 72 h, NF54 or 3D7 infected human erythrocytes, 72 hours, read-out: EC50 (nM), inhibitory efficacy in delaying P. falciparum proliferation in infected human blood cells
In short: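 NF54 or 3D7 parasites in O+ human erythrocytes at 2.5% hematocrit and 0.3% parasitemia final, exposed to compounds 72 h at 37 °C under 93% N2/4% CO2/3% O2.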

[1] = 3D7|NF54, Erythrocyte, in Homo sapiens

Row | Compound | EC50 (Erythrocyte) [nM] | EC50 [1] [nM]
1 | Cc1ccc(N(C)Cc2cn3c(-c4ccc(C(N)=O)cc4)cnc3cn2)nc1 [Compound 233, 4-(6-{[methyl(5-methylpyridin-2-yl)amino]methyl}imidazo[1,2-a]pyrazin-3-yl)benzamide] | 138 | 
2 | O=C(c1cn2c(-c3ccc(C(F)(F)F)cc3)cnc2cn1)N1CCCc2cc(F)ccc21 [Compound 111, 6-fluoro-1-({3-[4-(trifluoromethyl)phenyl]imidazo[1,2-a]pyrazin-6-yl}carbonyl)-1,2,3,4-tetrahydroquinoline] | 128 | 
3 | CN(Cc1cn2c(-c3ccc(-n4cccn4)cc3)cnc2cn1)c1ccc(F)cc1 [Compound 10] |  | 189
4 | CN(C(=O)c1ccc(N2CCOCC2)cc1)c1cn2c(-c3ccc(C(F)(F)F)cc3)cnc2cn1 [Compound 24, N-methyl-4-(morpholin-4-yl)-N-{3-[4-(trifluoromethyl)phenyl]imidazo[1,2-a]pyrazin-6-yl}benzamide] | 1120 | 
5 | CN(C(=O)c1cn2c(-c3ccc(F)cc3)cnc2cn1)c1ccc(C#N)cc1 [Compound 153, N-(4-cyanophenyl)-3-(4-fluorophenyl)-N-methylimidazo[1,2-a]pyrazine-6-carboxamide] | 2060 | 
6 | CN(C(=O)c1cn2c(-c3ccc4[nH]cnc4c3)cnc2cn1)c1ccc(C#N)cc1 [Compound 143, 3-(1H-1,3-benzodiazol-5-yl)-N-(4-cyanophenyl)-N-methylimidazo[1,2-a]pyrazine-6-carboxamide] | 1560 | 
7 | CN(Cc1cn2c(-c3ccc(C(F)(F)F)cc3)cnc2cn1)c1ccc(Cl)nc1 [Compound 231, 6-chloro-N-methyl-N-({3-[4-(trifluoromethyl)phenyl]imidazo[1,2-a]pyrazin-6-yl}methyl)pyridin-3-amine] | 74 | 
8 | CCn1nccc1N(C)C(=O)c1cn2c(-c3ccc(C(F)(F)F)cc3)cnc2cn1 [Compound 298, N-(1-ethyl-1H-pyrazol-5-yl)-N-methyl-3-[4-(trifluoromethyl)phenyl]imidazo[1,2-a]pyrazine-6-carboxamide] | 1070 | 
9 | CN(C(=O)c1cn2c(-c3ccc(-c4ccn[nH]4)cc3)cnc2cn1)c1ccc(C#N)cn1 [Compound 182, N-(5-cyanopyridin-2-yl)-N-methyl-3-[4-(1H-pyrazol-5-yl)phenyl]imidazo[1,2-a]pyrazine-6-carboxamide] | 2260 | 
10 | COc1ccncc1N(C)C(=O)c1cn2c(-c3ccc(C(F)(F)F)cc3)cnc2cn1 [Compound 303, N-(4-methoxypyridin-3-yl)-N-methyl-3-[4-(trifluoromethyl)phenyl]imidazo[1,2-a]pyrazine-6-carboxamide] | 1280 | 
11 | CCc1ccnc(NC(=O)c2cn3c(-c4ccc(C(F)(F)F)cc4)cnc3cn2)c1 [Compound 334, N-(4-ethylpyridin-2-yl)-3-[4-(trifluoromethyl)phenyl]imidazo[1,2-a]pyrazine-6-carboxamide] | > 5190 | 
12 | CN(C(=O)c1cn2c(-c3ccc(NCCN4CCOCC4)nc3)cnc2cn1)c1ccc(C#N)cc1 [Compound 400, -(4-cyanophenyl)-N-methyl-3-(6-{[2-(morpholin-4-yl)ethyl]amino}pyridin-3-yl)imidazo[1,2-a]pyrazine-6-carboxamide] | 7850 | 
13 | Cc1ccc(-c2cnc3cnc(C(=O)N(C)c4ccc(C#N)cc4)cn23)nc1 [Compound 19, N-(4-cyanophenyl)-N-methyl-3-(5-methylpyridin-2-yl)imidazo[1,2-a]pyrazine-6-carboxamide] | 280 | 
14 | CN(C(=O)c1cn2c(-c3ccc(C(N)=O)cc3)cnc2cn1)c1ccc(Cl)nc1 [Compound 161, 3-(4-carbamoylphenyl)-N-(6-chloropyridin-3-yl)-N-methylimidazo[1,2-a]pyrazine-6-carboxamide] | 1470 | 
15 | CN(C(=O)c1cn2c(-c3ccc(S(N)(=O)=O)cc3)cnc2cn1)c1ccc(C#N)cc1 [Compound 148] |  | 1360
16 | O=C1CCCCN1Cc1cn2c(-c3ccc(C(F)(F)F)cc3)cnc2cn1 [Compound 426, 1-({3-[4-(trifluoromethyl)phenyl]imidazo[1,2-a]pyrazin-6-yl}methyl)piperidin-2-one] | 1950 | 
17 | CN(C)c1cccc(-c2cnc3cnc(C(=O)N(C)c4ccc(Cl)nc4)cn23)c1 [Compound 418, N-(6-chloropyridin-3-yl)-3-[3-(dimethylamino)phenyl]-N-methylimidazo[1,2-a]pyrazine-6-carboxamide] | > 10000 | 
18 | CN(C(=O)c1cn2c(-c3cccc(C#N)c3)cnc2cn1)c1ccc(C#N)cc1 [Compound 191, 3-(3-cyanophenyl)-N-(4-cyanophenyl)-N-methylimidazo[1,2-a]pyrazine-6-carboxamide] | 7730 | 
19 | CN(C(=O)c1cn2c(-c3ccc(N4CCCCC4)cc3)cnc2cn1)c1ccc(Cl)nc1 [Compound 216, N-(6-chloropyridin-3-yl)-N-methyl-3-[4-(piperidin-1-yl)phenyl]imidazo[1,2-a]pyrazine-6-carboxamide] | 5710 | 
20 | CN(C(=O)c1ccc(Cl)cn1)c1cn2c(-c3ccc(C(F)(F)F)cc3)cnc2cn1 [Compound 264, 5-chloro-N-methyl-N-{3-[4-(trifluoromethyl)phenyl]imidazo[1,2-a]pyrazin-6-yl}pyridine-2-carboxamide] | 277 | 
21 | CNc1ccc(-c2cnc3cnc(C(=O)N(C)c4ccc(C#N)cc4)cn23)cc1 [Compound 117, N-(4-cyanophenyl)-N-methyl-3-[4-(methylamino)phenyl]imidazo[1,2-a]pyrazine-6-carboxamide] | 92 | 
22 | CS(=O)(=O)c1ccc2c(c1)CCN2C(=O)c1cn2c(-c3ccc(C(F)(F)F)cc3)cnc2cn1 [Compound 7, 5-methanesulfonyl-1-({3-[4-(trifluoromethyl)phenyl]imidazo[1,2-a]pyrazin-6-yl}carbonyl)-2,3-dihydro-1H-indole] | > 10000 | 
23 | C[C@@H](N)CC(=O)Nc1ccc(-c2cnc3cnc(C(=O)N(C)c4ccc(C#N)cc4)cn23)cc1 [Compound 269, 3-{4-[(3R)-3-aminobutanamido]phenyl}-N-(4-cyanophenyl)-N-methylimidazo[1,2-a]pyrazine-6-carboxamide] | 651 | 
24 | FC(F)(F)c1ccc(-c2cnc3cnc(CN4CCOCC4)cn23)cc1 [Compound 392, 4-({3-[4-(trifluoromethyl)phenyl]imidazo[1,2-a]pyrazin-6-yl}methyl)morpholine] | 3250 | 
25 | CN(C(=O)c1cn2c(-c3ccc(F)cc3)cnc2cn1)c1ccc(Cl)nc1 [Compound 422, N-(6-chloropyridin-3-yl)-3-(4-fluorophenyl)-N-methylimidazo[1,2-a]pyrazine-6-carboxamide] | > 10000 | 
26 | CC(=O)c1ccc(-c2cnc3cnc(C(=O)N(C)c4ccc(C#N)cc4)cn23)cc1 [Compound 134, 3-(4-acetylphenyl)-N-(4-cyanophenyl)-N-methylimidazo[1,2-a]pyrazine-6-carboxamide] | 490 | 
27 | O=C(c1cn2c(-c3ccc(C(F)(F)F)cc3)cnc2cn1)N1CCc2cc(F)ccc21 [Compound 176, 5-fluoro-1-({3-[4-(trifluoromethyl)phenyl]imidazo[1,2-a]pyrazin-6-yl}carbonyl)-2,3-dihydro-1H-indole] | > 10000 | 
